Reference: US11096985B2, “Antimicrobial peptides, their variants and uses” (priority 2015, dated 2021)
Values after ≈ are worked out from the molar mass of the structure shown. “Also recorded” adds a separate entry of the source. Where a SMILES comes first, the peptide text is derived from it. [ ]: non-standard residue; d: D form.

Experiments:
[1] = tested on: clinical strains of C. glabrata; experiment: MIC, clinical yeast strains, C. glabrata; assay type: cell-based, Candida glabrata; design: unit: μg/ml
Procedure: (§1) Minimum inhibition concentrations (MICs) were determined against Escherichia coli (ATCC 25922), Staphylococcus aureus (ATCC 25923), Klebsiella pneumoniae (ATCC 10031) and Pseudomonas aeruginosa (ATCC 27853). Also clinical strains of E. coli, K. pneumoniae, E. cloacae, P. aeruginosa, Serratia marcescens, Proteus mirabilis, S. pneumoniae, Acinetobacter baumannii, A. johnsonii and S. aureus were used for MICs assays. Additionally, clinical strains of yeast including Candida albicans, C. glabrata, C. parapsilosis and C. quillermondiae were used. The susceptibility of these microorganisms to Chain peptides were determined using micro broth dilution assay. Colonies of the respective microorganism from Muller Hinton (MH) agar plates incubated overnight were suspended in MH broth media and final concentration of microorganism was adjusted to 5.0×10^5 cfu/ml. An aliquot of 10 μl of each Chain peptide, or gentamicin, tetracycline as reference antibiotics were added in differing concentrations along with 90 μl of bacterial suspension to 96 well polypropylene plates and incubated at 37° C. for 20 to 24 hours. Concentrations of Chain peptides and reference antibiotics ranged from 0.125 to 128 μg/ml and the MICs were recorded as the lowest concentration with no visual growth of bacteria. Similarly, antifungal MICs were tested in Potato dextrose broth.
(§2) Clinical strains of yeasts including Candida albicans, C. glabrata, C. parapsilosis and C. quillermondiae were also tested with the 12 Chain peptides. The minimum inhibitory concentration (MICs) varied between these peptides and are presented in Tables 4a, 4b, 4c and 5a, 5b, 5c. Peptides Chain 105, 201 and 308 are broad spectrum antimicrobials with MICs between 0.5-32 μg/ml against all the bacteria and yeasts tested, except Serratia marcescens and Proteus mirabilis, against which the MICs were between 64-128 μg/ml. Peptide Chain 306 has narrow spectrum activity against E.coli at 1 μg/ml and for the rest of the bacterial strains at >32 μg/ml (FIG. 10).

[2] = tested on: clinical strains of Candida albicans; experiment: MIC, clinical yeast strains, Candida albicans; assay type: cell-based; design: unit: μg/ml
Procedure: as §1, §2

[3] = tested on: clinical strains of C. quillermondiae; experiment: MIC, clinical yeast strains, C. quillermondiae; assay type: cell-based; conditions: C. quillermondiae clinical yeast strain 1
Procedure: as §1, §2

[4] = tested on: clinical strains of Acinetobacter johnsonii; assay type: cell-based
Procedure: as §1, §2

[5] = tested on: clinical strains of C. parapsilosis; experiment: MIC, clinical yeast strains, C. parapsilosis; assay type: cell-based, Candida parapsilosis; design: unit: μg/ml
Procedure: as §1, §2

[6] = pH 4-9, RDA
Procedure: (§5) Thermal stability was evaluated by diluting peptides to the concentration of 2 mg/ml in PBS buffer (pH 7.4) and incubating at different temperatures, such as +4° C., 25° C. (RT), 37° C. and 45° C., peptides stored at −20° C. were used as control. […] Peptides were also tested by diluting them at different pH values starting from pH 4 to 9. The effect of NaCl on the antimicrobial activity was tested by adding different concentrations (50, 100 and 200 mM) of NaCl to MH medium and the minimum inhibitory concentrations were tested against 4 ATCC bacterial strains.

human erythrocytes = assay type: cell-based
Procedure: In hemolysis assays, the ability of peptides at 128 μg/ml concentration to lyse human erythrocytes to release hemoglobin was measured. The peptides described here preferably have low hemolytic activity (0.2 to 3.8% hemolysis) in mammal body. […] These peptides are useful as antimicrobial drugs as they show little or no side effects at concentrations needed to kill bacteria.
Minimum inhibition concentrations (MICs) were tested by microbroth dilution method and Chain 104, 105 and 109 inhibited the growth of Escherichia coli (ATCC 25922), Staphylococcus aureus (ATCC 25923), Klebsiella pneumoniae (ATCC 10031) and Pseudomonas aeruginosa (ATCC 27853) between 1-8 μg/ml respectively (Tables 3a, 3b and 3c). The membranolytic activities of the peptides were tested by measuring the release of hemoglobin from erythrocytes of fresh blood donated by voluntiers. Hemoglobin levels were determined spectrometrically by taking OD at 540 nm by following the protocol of Schmidtchen et al., 2011.

[7] = +4, 25, 37 and 45° C., 14 days, PBS pH 7.4, RDA with 20 μg
Procedure: as §5

[8] = tested on: Aspergillus flavus (DSM 1959); experiment: Radial diffusion assay, antifungal, A. flavus; assay type: cell-based; conditions: 20 μg
Procedure: (§3) The radial diffusion assay (RDA) was carried out as described by Andersen et al. (2010). Briefly, 30 ml of 1/10 Muller-Hinton broth (MHB) supplemented with 1% agarose and 5.0×10^5 CFU/ml S. aureus or E. coli or K. pneumoniae, P. aeruginosa cells was poured into a single-well omnitray (Nunc) and overlaid with a TSP 96-well plate. One hundred μg of each synthesized peptide was tested. The peptides were also tested against Fusarium oxysporum and Verticillium dahliae, for which 1/3 potato dextrose agarose was used. To test the synergistic effect of peptides, each peptide was mixed in equimolar concentrations. Mix1 (met1-12), Mix2 (met3, 4 and 5), Mix3 (met 8, 9 and 10), Mix 4 (met11, 12) and Mix5 (8, 9, 10, 11, 12) were prepared and tested against E. coli and S. aureus. Gentamicin and vancomycin were included as positive controls for bacteria and amphotericin B was used as the control for fungi.
(§4) By using rational design techniques, we have designed variants of peptides by incorporating or replacing various amino acids in the original peptides. Thus, we have designed and modified Chain 100, Chain 200 and Chain 300 with tryptophan (W), arginine (R) and lysine (K) at various positions to improve antimicrobial activity (FIGS. 4a-c and 5a-c). In some peptides we have also used other amino acids such as Leucine (L), Cysteine (C), Isoleucine (I), Phenylalanine (F) and Alanine (A). For synthesis, 32 variants and 3 original peptides were selected based on the various parameters such as positive charge, aliphatic index and instability index. Peptides variants were tested by using radial diffusion assay against Escherichia coli (ATCC 25922), Staphylococcus aureus (ATCC 25923), Klebsiella pneumoniae (ATCC 10031) and Pseudomonas aeruginosa (ATCC 27853) (FIGS. 6a-c). The zone of inhibition ranged between 10-18 mm for Escherichia coli and Staphylococcus aureus, 6-18 mm & 8-18 mm for Pseudomonas aeruginosa and Klebsiella pneumonia respectively (Table 2). For Gentamicin it was between 22-24 mm. Antifungal activity was tested for promising antibacterial peptides (Chains 104, 105, 109, 201, 204, 306, 307, 308, 310) against Aspergillus flavus (DSM 1959) and Penicillium chrysogenum (DSM 1075). All these peptides has activity at a concentration of 20 μg, Amphotericin B was used as a positive control at 20 μg (FIG. 7).

[9] = tested on: Penicillium chrysogenum (DSM 1075); experiment: Radial diffusion assay, antifungal, P. chrysogenum; assay type: cell-based; conditions: 20 μg
Procedure: as §3, §4

[10] = tested on: gram positive and negative bacteria; experiment: MIC by micro broth dilution, summary over the strains tested; assay type: cell-based
Procedure: as §1

[11] = C. glabrata clinical yeast strain 1
[12] = C. glabrata clinical yeast strain 2
[13] = C. glabrata clinical yeast strain 3
[14] = C. glabrata clinical yeast strain 4
[15] = Candida albicans clinical yeast strain 1
[16] = Candida albicans clinical yeast strain 2
[17] = Candida albicans clinical yeast strain 3
[18] = Candida albicans clinical yeast strain 4
[19] = Candida albicans clinical yeast strain 5
[20] = C. parapsilosis clinical yeast strain 1
[21] = C. parapsilosis clinical yeast strain 2
[22] = C. parapsilosis clinical yeast strain 3
[23] = C. parapsilosis clinical yeast strain 4

Structure (SMILES) | Minimum inhibitory concentration [1, 11] | Minimum inhibitory concentration [1, 12] | Minimum inhibitory concentration [1, 13] | Minimum inhibitory concentration [1, 14] | Minimum inhibitory concentration [2, 15] | Minimum inhibitory concentration [2, 16] | Minimum inhibitory concentration [2, 17] | Minimum inhibitory concentration [2, 18] | Minimum inhibitory concentration [2, 19] | Minimum inhibitory concentration [3] | Minimum inhibitory concentration, Acinetobacter johnsonii strain 1 [4] | Minimum inhibitory concentration [5, 20] | Minimum inhibitory concentration [5, 21] | Minimum inhibitory concentration [5, 22] | Minimum inhibitory concentration [5, 23] | pH stability (zone of inhibition) [6] | side effects to humans as tested by hemolysis assay (human erythrocytes) | thermostability (antibacterial activity kept after incubation) [7] | other results
CC[C@@H](C)[C@@H](NC(=O)[C@@H](CCSC)NC(=O)[C@@H](C)NC(=O)[C@@H](CCCNC(=N)N)NC(=O)[C@@H](Cc1c[nH]c2ccccc12)NC(=O)[C@@H](CCCCN)NC(=O)[C@H](N)CCCNC(=N)N)C(=O)N[C@H](CCCNC(=N)N)C(=O)N[C@H](CC(C)C)C(=O)N[C@H](Cc1c[nH]cn1)C(=O)N[C@H](C)C(=O)N[C@H](CCCCN)C(=O)N[C@H](Cc1c[nH]c2ccccc12)C(=O)N[C@H](CC(C)C)C(=O)N[C@H](CCCNC(=N)N)C(=O)N[C@H](CCCCN)C(=O)O [Chain105D] (H-[dR][dK][dW][dR][dA][dM][dI][dR][dL][dH][dA][dK][dW][dL][dR][dK]-OH) | 16 | 16 | 8 | 32 | 32 | 16 | 32 | 32 | 32 | 8 | 4 µg/mL (≈ 1.86 µM) | 8 | 8 | 8 | 4 | – | – | – | –
CC[C@@H](C)[C@@H](NC(=O)[C@@H](CCSC)NC(=O)[C@@H](C)NC(=O)[C@@H](CCCNC(=N)N)NC(=O)[C@@H](Cc1c[nH]c2ccccc12)NC(=O)[C@@H](CCCCN)NC(=O)[C@H](N)CCCNC(=N)N)C(=O)N[C@H](CCCNC(=N)N)C(=O)N[C@H](CC(C)C)C(=O)N[C@H](Cc1c[nH]cn1)C(=O)N[C@H](C)C(=O)N[C@H](CCCCN)C(=O)N[C@H](CCCNC(=N)N)C(=O)N[C@H](CC(C)C)C(=O)N[C@H](CCCNC(=N)N)C(=O)N[C@H](CCCCN)C(=O)O [Chain104D] (H-[dR][dK][dW][dR][dA][dM][dI][dR][dL][dH][dA][dK][dR][dL][dR][dK]-OH) | 8 | 8 | 8 | 16 | 8 | 8 | 8 | 8 | 8 | 4 | 8 µg/mL (≈ 3.77 µM) | 4 | 4 | 4 | 2 | – | – | – | –
CC[C@H](C)[C@H](NC(=O)[C@H](CC(C)C)NC(=O)[C@H](CCCNC(=N)N)NC(=O)[C@@H](N)CCCNC(=N)N)C(=O)N[C@@H](Cc1c[nH]c2ccccc12)C(=O)N[C@@H](CCCNC(=N)N)C(=O)N[C@@H](CCCNC(=N)N)C(=O)N[C@@H](Cc1ccccc1)C(=O)N[C@@H](CCCCN)C(=O)N[C@@H](Cc1c[nH]c2ccccc12)C(=O)N[C@@H](CC(C)C)C(=O)N[C@@H](CCCNC(=N)N)C(=O)O [Chain204] (H-RRLIWRRFKWLR-OH) | – | – | – | – | – | – | – | – | – | – | – | – | – | – | – | not hindered by pH | little side effects | not hindered by pH or temperature even upto 45 °C for over 14 days | –
CC[C@H](C)[C@H](NC(=O)[C@H](Cc1c[nH]c2ccccc12)NC(=O)[C@@H](N)CCCCN)C(=O)N[C@H](C(=O)N[C@@H](Cc1c[nH]c2ccccc12)C(=O)N[C@@H](CCCNC(=N)N)C(=O)N[C@@H](Cc1c[nH]c2ccccc12)C(=O)N[C@@H](CCCNC(=N)N)C(=O)N[C@@H](Cc1ccccc1)C(=O)N[C@@H](CCCCN)C(=O)N[C@@H](CCCNC(=N)N)C(=O)O)C(C)C [Chain201] (H-KWIVWRWRFKR-OH) | – | – | – | – | – | – | – | – | – | – | – | – | – | – | – | not hindered by pH | little side effects | not hindered by pH or temperature even upto 45 °C for over 14 days | –
CC(C)C[C@H](NC(=O)[C@H](Cc1c[nH]c2ccccc12)NC(=O)[C@H](Cc1ccccc1)NC(=O)[C@H](Cc1c[nH]c2ccccc12)NC(=O)[C@H](CCCCN)NC(=O)[C@H](CC(C)C)NC(=O)[C@@H](N)CCCNC(=N)N)C(=O)N[C@@H](Cc1ccccc1)C(=O)N[C@@H](CCCNC(=N)N)C(=O)N[C@@H](CCCCN)C(=O)N[C@@H](CCCNC(=N)N)C(=O)O [Chain307] (H-RLKWFWLFRKR-OH; N-terminus and C-terminus assumed) | – | – | – | – | – | – | – | – | – | – | – | – | – | – | – | – | little side effects | – | antifungal activity against Aspergillus flavus [8]: has activity; also recorded: particularly active; antifungal activity against Penicillium chrysogenum [9]: has activity; also recorded: particularly active; activity against the four ATCC strains [10]: very active
CC[C@H](C)[C@H](NC(=O)[C@H](CCSC)NC(=O)[C@H](C)NC(=O)[C@H](CCCNC(=N)N)NC(=O)[C@H](Cc1c[nH]c2ccccc12)NC(=O)[C@H](CCCCN)NC(=O)[C@@H](N)CCCNC(=N)N)C(=O)N[C@@H](CCCNC(=N)N)C(=O)N[C@@H](CC(C)C)C(=O)N[C@@H](Cc1c[nH]cn1)C(=O)N[C@@H](C)C(=O)N[C@@H](CCCCN)C(=O)N[C@@H](Cc1c[nH]c2ccccc12)C(=O)N[C@@H](CC(C)C)C(=O)N[C@@H](CCCNC(=N)N)C(=O)N[C@@H](CCCCN)C(=O)O [Chain105] (H-RKWRAMIRLHAKWLRK-OH) | – | – | – | – | – | – | – | – | – | – | – | – | – | – | – | not hindered by pH | little side effects | not hindered by pH or temperature even upto 45 °C for over 14 days | –
